Laboratory results published in article PMC9246773, “Assessing the Activity of Antimicrobial Peptides Against Common Marine Bacteria Located in Rotifer (Brachionus plicatilis) Cultures” (Probiotics and Antimicrobial Proteins, 2022).
No end group written: not given here.

Key:
Format in all cases: cell-based
Shewanella sp. [1] = settings: 48 h
Protocol: (§1) A range of bacterial species with the potential to be transferred to developing fish larvae as pathogens or probiotics were selected for use in the study (Table 2). Bacterial isolates were stored at −80 °C and thawed, and 25 µL of the isolates was spread onto marine salt agar (MSA) media. All isolates were incubated at 25 °C for 18 h to reach mid-log growth phase. All isolates were sub-cultured and identified using mass spectrometry (MALDI-TOF) using the BioTyper and MBT 8468 library (Bruker Pty Ltd). The isolate Tenacibaculum discolor was plated on Anacker and Oradal’s marine (AOM) media, incubated for 48 h and identified using the aforementioned method. Bacterial isolates were suspended in sterile saline (0.75% NaCl w/v) to 0.5 McFarland standard. […] The bacterial isolates T. discolor and Pseudoalteromonas sp. require marine salts to grow and were not added to MHB (0‰). The isolate T. discolor requires low nutrients to grow, therefore, a separate MHB (25‰) was prepared at a diluted ratio of 1 part MHB and 7 parts artificial seawater (25‰).
(§2) The protocol was followed to determine the minimum inhibitory concentration (MIC) of the selected peptides. Two MIC assays were performed, firstly to determine whether each peptide precipitated in MHB and thereby required acetic acid adjustments (supplementary materials) and secondly, to determine the antimicrobial activity of each peptide in artificial seawater (25‰). Peptide stock solutions (1.3 mg mL^−1) were made by diluting the peptides in sterile deionised water. MHB was made with deionised water to reach a concentration of approaching 0‰ and artificial sea salts (Sigma-Aldrich® S9883) to reach a salinity of 25‰.
(§3) Once the acetic acid requirement for each peptide was determined (Table 3), the antimicrobial activity of each peptide was tested at a salinity of 0‰ and 25‰ for all bacterial isolates. A stock solution for peptides that required acetic acid was prepared by a 1:2 dilution in acetic acid (0.02% acetic acid w/v, containing 0.4% BSA) solution. In a 96-well polypropylene microtitre plates (Costar® 3879), 100 µL of this peptide stock was added to the first well for each bacterial isolate tested and serially diluted twofold with acetic acid (0.01% acetic acid w/v, containing 0.2% BSA). From each well, 10 µL of each peptide concentration was added to the corresponding wells of a new 96-well microtitre plate. From each of the bacterial suspensions (0‰), 90 µL was added to each well. […] Twofold serial dilutions were made with MHB (0‰). From each of the bacterial suspensions (0‰), 50 µL was added to each well. The same method was followed for testing peptides in MHB at 25‰. All peptide concentrations ranged from 0.125 to 65 µg mL^−1, and the bacterial suspension in each well was approximately 5 × 10^5 CFU mL^−1. The different salinities were used to compare any differences in antimicrobial activity in 0‰ and 25‰ water. […] Each bacterium was trialled in duplicate.

[2] = test system: Vibrio harveyi (ATCC 35084); settings: ATCC 35084, 48 h
Protocol: as §1, §2, §3

Vibrio alginolyticus [3] = settings: 48 h
Protocol: as §1, §2, §3

[4] = test system: Escherichia coli (ATCC 25922); settings: ATCC 25922, 48 h
Protocol: as §1, §2, §3

Pseudoalteromonas sp. = settings: 48 h
Protocol: as §1, §2, §3

Vibrio scophthalmi [5] = settings: 48 h
Protocol: as §1, §2, §3

Vibrio harveyi [6] = settings: 48 h
Protocol: as §1, §2, §3

Vibrio rotiferianus [7] = settings: 48 h
Protocol: as §1, §2, §3

Tenacibaculum discolor = settings: 48 h
Protocol: as §1, §2, §3

Shewanella sp. [8] = settings: 48 h; remark: listed apart in the source
Protocol: as §1, §2
(§4) A broth microdilution protocol was followed to test whether the AMPs precipitated in MHB. The isolates T. discolor and Pseudoalteromonas were excluded from this assay because they required marine salts for growth. The peptides HHC10 and HHC36 previously required acetic acid adjustments according to [63] and were not trialled in this assay. To test if peptides required acetic acid, each peptide was diluted 1:2 in acetic acid (0.02% acetic acid w/v, containing 0.4% BSA) solution. In a 96-well polypropylene microtitre plates (Costar® 3879), 100 µL of this peptide stock was added to the first well for each bacterial isolate tested and serially diluted 2-fold with acetic acid (0.01% acetic acid w/v, containing 0.2% BSA). From each well, 10 µL of each peptide concentration was added to the corresponding wells of a new 96-well microtitre plate. From each of the bacterial suspensions in MHB (0‰), 90 µL was added to each well. […] From each of the bacterial suspensions in MHB (0‰), 50 µL was added to each well. All peptide concentrations ranged from 0.125 - 65µg mL^-1 and the bacterial suspension in each well was approximately 5 × 10^5 CFU mL^-1. Antimicrobial peptides that have an MIC value two or more dilutions higher in the assay with no acetic acid, compared to the assay with acetic acid, require acetic acid adjustments. The 96-well plates were incubated at 25 °C and read at 24 and 48 hours. The MIC was visually determined using a Sensititre™ Vizion™ Digital MIC Viewing System (Thermo Scientific™), and the lowest AMP concentration that had no bacterial growth was recorded as the MIC after 48 hours. Each bacterium was trialled in duplicate.

[9] = test system: Vibrio harveyi (ATCC 35084); settings: ATCC 35084, 48 h; remark: listed apart in the source
Protocol: as §1, §2, §4

Vibrio alginolyticus [10] = settings: 48 h; remark: listed apart in the source
Protocol: as §1, §2, §4

[11] = test system: Escherichia coli (ATCC 25922); settings: ATCC 25922, 48 h; remark: listed apart in the source
Protocol: as §1, §2, §4

Vibrio scophthalmi [12] = settings: 48 h; remark: listed apart in the source
Protocol: as §1, §2, §4

Vibrio harveyi [13] = settings: 48 h; remark: listed apart in the source
Protocol: as §1, §2, §4

Vibrio rotiferianus [14] = settings: 48 h; remark: listed apart in the source
Protocol: as §1, §2, §4

| Substance | MIC Shewanella sp., salinity 25‰ (Shewanella sp. [1]) [µg/mL] | MIC V. harveyi ATCC 35084, salinity 0‰ [2] [µg/mL] | MIC V. harveyi ATCC 35084, salinity 25‰ [2] [µg/mL] | MIC V. alginolyticus, salinity 0‰ (Vibrio alginolyticus [3]) [µg/mL] | MIC V. alginolyticus, salinity 25‰ (Vibrio alginolyticus [3]) [µg/mL] | MIC E. coli ATCC 25922, salinity 0‰ [4] [µg/mL] | MIC E. coli ATCC 25922, salinity 25‰ [4] [µg/mL] | MIC Pseudoalteromonas sp., salinity 25‰ (Pseudoalteromonas sp.) [µg/mL] | MIC V. scophthalmi, salinity 0‰ (Vibrio scophthalmi [5]) [µg/mL] | MIC V. scophthalmi, salinity 25‰ (Vibrio scophthalmi [5]) [µg/mL] | MIC V. harveyi, salinity 0‰ (Vibrio harveyi [6]) [µg/mL] | MIC V. harveyi, salinity 25‰ (Vibrio harveyi [6]) [µg/mL] | MIC V. rotiferianus, salinity 0‰ (Vibrio rotiferianus [7]) [µg/mL] | MIC V. rotiferianus, salinity 25‰ (Vibrio rotiferianus [7]) [µg/mL] | MIC T. discolor, salinity 25‰ (Tenacibaculum discolor) [µg/mL] | further results |
| --- | --- | --- | --- | --- | --- | --- | --- | --- | --- | --- | --- | --- | --- | --- | --- | --- |
| KRWWKWWRR-NH2 [HHC36] | > 65 | 32.5 | > 65 | > 65 | > 65 | 2.03 | > 65 | > 65 | 2.03 | > 65 | 32.5 | > 65 | > 65 | > 65 | > 65 |  |
| RRQWRGWVRIWL-NH2 [Peptide 3005] | 65 | 4.06 | > 65 | 2.03 | > 65 | 4.06 | > 65 | > 65 | 0.13 | 65 | 4.06 | > 65 | 1.02 | > 65 | > 65 | MIC Shewanella sp., salinity 0‰ (Shewanella sp. [1]): 8.13 µg/mL; MIC Shewanella sp., Acetic (Shewanella sp. [8]): 4.06 µg/mL; MIC Shewanella sp., No acetic (Shewanella sp. [8]): 8.13 µg/mL; MIC V. harveyi ATCC 35084, Acetic [9]: 16.25 µg/mL; MIC V. harveyi ATCC 35084, No acetic [9]: 16.25 µg/mL; MIC V. alginolyticus, Acetic (Vibrio alginolyticus [10]): 4.06 µg/mL; MIC V. alginolyticus, No acetic (Vibrio alginolyticus [10]): 16.25 µg/mL; MIC E. coli ATCC 25922, Acetic [11]: > 65 µg/mL; MIC E. coli ATCC 25922, No acetic [11]: > 65 µg/mL; MIC V. scophthalmi, Acetic (Vibrio scophthalmi [12]): 1.02 µg/mL; MIC V. scophthalmi, No acetic (Vibrio scophthalmi [12]): 0.25 µg/mL; MIC V. harveyi, Acetic (Vibrio harveyi [13]): 4.06 µg/mL; MIC V. harveyi, No acetic (Vibrio harveyi [13]): 1.02 µg/mL; MIC V. rotiferianus, Acetic (Vibrio rotiferianus [14]): 4.06 µg/mL; MIC V. rotiferianus, No acetic (Vibrio rotiferianus [14]): 1.02 µg/mL |
